The source of these data is publication PMC5775816 (Journal of medicinal chemistry, 2016).

For data set [1], the target named is T1, PAR4 (Homo sapiens, UniProt Q96RI0).
T1 sequence (Q96RI0 18-385): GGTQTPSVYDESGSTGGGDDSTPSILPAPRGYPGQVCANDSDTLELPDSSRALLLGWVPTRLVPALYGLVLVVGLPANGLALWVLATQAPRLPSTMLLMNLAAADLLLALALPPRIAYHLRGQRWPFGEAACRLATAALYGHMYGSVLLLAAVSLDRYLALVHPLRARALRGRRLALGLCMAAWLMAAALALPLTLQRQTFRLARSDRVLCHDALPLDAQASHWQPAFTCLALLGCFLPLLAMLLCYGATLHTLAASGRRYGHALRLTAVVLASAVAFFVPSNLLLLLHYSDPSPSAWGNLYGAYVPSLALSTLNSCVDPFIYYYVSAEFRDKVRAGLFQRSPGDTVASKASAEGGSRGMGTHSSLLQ
Kind of data set: PAC-1 binding assay. The data set is classed as cell-based. To be noted: for PAR4 activity (in words): PAR4-AP, PAC-1.

Data set [2] concerns the target T1, PAR4. Nature of the data set: Progressive fold-shift inhibition assay/Schild analysis. The data set is classed as cell-based.
A short description of data set [3]: Predicted hepatic clearance in human microsomes. The data set is classed as in vitro ADME.
A further data set is described as follows: In vivo rat PK. The note with it: plasma, iv, 0.2 mg/kg.
The nature of data set [4]: Predicted hepatic clearance in rat microsomes. The class given is in vitro ADME.
In data set [5] the target is T2, PAR4 (Homo sapiens, UniProt Q96RI0).
T2 sequence (Q96RI0 48-385): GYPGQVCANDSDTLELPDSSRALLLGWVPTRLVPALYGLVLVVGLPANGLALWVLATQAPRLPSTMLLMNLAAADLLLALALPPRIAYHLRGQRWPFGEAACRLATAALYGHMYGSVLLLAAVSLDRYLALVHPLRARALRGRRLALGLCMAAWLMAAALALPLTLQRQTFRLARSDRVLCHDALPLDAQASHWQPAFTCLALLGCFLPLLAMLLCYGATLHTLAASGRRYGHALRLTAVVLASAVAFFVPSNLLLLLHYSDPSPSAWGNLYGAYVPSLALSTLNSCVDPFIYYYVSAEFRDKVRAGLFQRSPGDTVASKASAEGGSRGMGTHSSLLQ
To be noted: literature antagonists; cited from earlier work.

Data set [6] concerns PAR4. The note with it: read-out: EC50 for PAR4; thrombin as agonist; background statement; cited from earlier work.

“Also recorded” adds a separate entry of the source.

For the compound `COc1ccc(-c2c(CO)n(C)c3ccc(C(F)(F)F)cc23)cn1` [9a], the “PAR4 activity (in words)” value on PAR4 [1] was “devoid of PAR4 activity”. The same measure, in the same setting: then `COc1ccc(-c2c(CO)n(Cc3ccccc3)c3ccc(OC(F)(F)F)cc23)cn1` [9b], with “devoid of PAR4 activity”. In the case of `COc1ccc(-c2c(CO)n(Cc3ccccc3F)c3ccc(OC(F)(F)F)cc23)cn1` [9c], the “PAR4 activity (in words)” value on PAR4 [1] is “devoid of PAR4 activity”. Same read-out and setting: then `COc1cccc(Cn2c(CO)c(-c3ccc(OC)nc3)c3cc(C(F)(F)F)ccc32)c1` [9d], with “devoid of PAR4 activity”; and `COc1ccc(-c2c(CO)n(Cc3cccc(F)c3)c3ccc(OC(F)(F)F)cc23)cn1` [9e], with “devoid of PAR4 activity”.

Consider `COc1ccc(-c2c(CO)n(Cc3cccc(Cl)c3)c3ccc(OC(F)(F)F)cc23)cn1` [9h], for which the “PAR4 activity (in words)” value at PAR4 [1] was “devoid of PAR4 activity”. In the case of `OCc1c(-c2cncnc2)c2cc(OC(F)(F)F)ccc2n1Cc1ccc(F)cc1F` [10b], the “PAR4 activity (in words)” value at PAR4 [1] was “inactive”. Usually IC50 stands for the concentration that inhibits the measured activity by half. For `CSc1ncc(-c2c(CO)n(Cc3ccc(F)cc3F)c3ccc(OC(F)(F)F)cc23)cn1` [10c], the IC50 at PAR4 [1] is 1490 nM. By clearance is commonly meant the volume of plasma or blood freed of the substance per unit of time. Higher therefore signals a high capacity for elimination. As to `COc1nn2cc(-c3c(CO)n(Cc4ccccc4Cl)c4ccc(OC(F)(F)F)cc34)nc2s1` [10h], the “mode of PAR4 inhibition” value on PAR4 [2] is on record as “complex mode of PAR4 inhibition; also recorded: mixed competitive/noncompetitive mechanism of action”. For the same compound, the “human CLHEP” value in data set [3] is 1.1 mL/min/kg. In “In vivo rat PK”, this compound yielded a clearance at 6 h of 45 mL/min/kg. Also, in data set [4], the “rat CLHEP” value was 36.1 mL/min/kg. `COc1ccc(-c2c(CO)n(Cc3ccccc3Cl)c3cc(OC(F)(F)F)ccc23)cn1` [11d] returned an IC50 on PAR4 [1] of 930 nM.

Regarding `CCOC(=O)c1ccc(-c2nn(Cc3ccccc3)c3ccccc23)cc1` [compound 1], the “activity upon γ-thrombin activation (in words)” value on PAR4 [5] is on record as “lack of activity”. As usually defined, the EC50 is the concentration that produces a half-maximal response. For Thrombin, in the data set on PAR4 [6], the EC50 was around 5 nM.
